Here are results for five molecules from US5225528A, “Cyclic hexapeptide oxytocin antagonists” (priority 1990, dated 1993).

Read-outs that look alike come from different tables or passages of the source. Numbered stars: 1 amine (or outer) side, 2 acyl side, 3 side chain; on linkers, the order of the positions; unused ones are H or OH. Square brackets hold non-standard residues; d marks the D form. Peptide text beside a SMILES is read from it. X9 = O=C([C@@H]1CN(P(=O)(OCc2ccccc2)OCc2ccccc2)CCN1[*:1])[*:2]; dPiz(1,6-dehydro) = O=C(O)[C@H]1CCC=NN1; dNMeF = CN[C@H](Cc1ccccc1)C(=O)O; Pip = O=C(O)[C@@H]1CCCCN1; dPip = O=C(O)[C@H]1CCCCN1

The target of one experiment is T1, uterine OT receptors (Rattus norvegicus, UniProt P70536).
T1 construct: from tissue; host or cells: uterus of DES-treated rats, crude membranes
T1 sequence (P70536 1-388): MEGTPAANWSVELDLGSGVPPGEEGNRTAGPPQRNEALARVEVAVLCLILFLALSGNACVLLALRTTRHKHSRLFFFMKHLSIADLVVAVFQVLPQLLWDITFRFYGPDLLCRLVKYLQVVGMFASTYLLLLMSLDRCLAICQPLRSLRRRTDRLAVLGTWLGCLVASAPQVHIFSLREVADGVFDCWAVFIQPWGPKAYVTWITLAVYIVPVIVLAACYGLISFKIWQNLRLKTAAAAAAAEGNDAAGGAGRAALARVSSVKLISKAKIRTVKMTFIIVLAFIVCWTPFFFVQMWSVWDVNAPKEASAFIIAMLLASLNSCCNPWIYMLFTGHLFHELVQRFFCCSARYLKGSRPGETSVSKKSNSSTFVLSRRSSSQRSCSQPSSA
Description: [^3 H]OT binding to uterine OT receptors, crude membrane preparation of uteri from DES-treated rats. As for the experimental part:
Competition studies were conducted at equilibrium (60 minutes; 22° C.) using 1 nM [^3 H]OT in the following assay buffer: 50 mM Tris-HCl, 5 mM MgCl2, and 0.1% BSA, pH 7.4.

The target of the next experiment is T2, AVP-V1 sites (Rattus norvegicus, UniProt P30560).
T2 construct: crude membrane preparation of male rat liver (AVP-V1 sites); from tissue; host or cells: male rat liver, crude membranes
T2 sequence (P30560 whole entry): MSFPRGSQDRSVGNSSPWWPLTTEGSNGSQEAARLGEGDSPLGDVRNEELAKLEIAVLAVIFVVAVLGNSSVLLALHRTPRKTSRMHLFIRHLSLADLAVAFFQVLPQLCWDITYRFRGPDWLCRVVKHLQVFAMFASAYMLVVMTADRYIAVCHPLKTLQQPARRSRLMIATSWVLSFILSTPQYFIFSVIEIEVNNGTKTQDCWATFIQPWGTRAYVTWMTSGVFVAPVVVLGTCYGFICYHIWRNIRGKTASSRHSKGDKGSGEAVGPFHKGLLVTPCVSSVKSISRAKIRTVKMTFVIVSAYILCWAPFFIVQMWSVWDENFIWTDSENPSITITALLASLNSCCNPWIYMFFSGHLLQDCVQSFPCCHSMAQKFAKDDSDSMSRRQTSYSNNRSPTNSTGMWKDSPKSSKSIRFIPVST
Description: [^3 H]AVP binding to crude membrane preparation of male rat liver (AVP-V1 sites). The procedure:
(§1) Nonspecific binding (5-10% of the total binding) was determined using 10 μM unlabeled AVP, and the binding reaction was terminated by filtration as described above for the [^3 H]OT binding assay.

The target in a further experiment is T3, AVP-V2 sites (Rattus norvegicus, UniProt Q00788).
T3 construct: male rat liver (AVP-V1 sites) or kidney medulla (AVP-V2 sites); from tissue; host or cells: male rat kidney medulla, crude membranes
T3 sequence (Q00788 whole entry): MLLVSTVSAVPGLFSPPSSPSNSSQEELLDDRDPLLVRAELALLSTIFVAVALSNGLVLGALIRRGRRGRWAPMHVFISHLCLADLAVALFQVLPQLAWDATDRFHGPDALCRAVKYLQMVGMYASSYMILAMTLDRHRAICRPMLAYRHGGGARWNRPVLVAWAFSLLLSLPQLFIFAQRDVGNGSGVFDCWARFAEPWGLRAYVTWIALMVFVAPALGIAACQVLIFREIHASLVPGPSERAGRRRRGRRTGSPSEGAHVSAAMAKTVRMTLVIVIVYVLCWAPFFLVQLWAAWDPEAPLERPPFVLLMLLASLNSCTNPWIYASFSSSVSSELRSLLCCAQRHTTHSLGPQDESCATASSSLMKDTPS
Description: [^3 H]AVP binding to crude membrane preparation of male rat kidney medulla (AVP-V2 sites). The note with it: for IC50: rat kidney medulla membranes, 2 nM [^3 H]AVP, read-out: Receptor Binding Results IC50 (nM) [^3 H]-AVP-V2. The procedure:
as §1

Where [1] appears, read: rat uterus membranes, 1 nM [^3 H]OT, read-out: Receptor Binding Results IC50 (nM) [^3 H]OT.
[2] abbreviates: rat liver membranes, 1 nM [^3 H]AVP, read-out: Receptor Binding Results IC50 (nM) [^3 H]-AVP-V1.

For orientation: IC50 means the concentration that inhibits the measured activity by half. `CC[C@H](C)[C@@H]1NC(=O)[C@@H](Cc2c[nH]c3ccccc23)NC(=O)[C@@H]2CCCN2C(=O)[C@@H](Cc2ccccc2)N(C)C(=O)[C@@H]2CN(P(=O)(OCc3ccccc3)OCc3ccccc3)CCN2C(=O)[C@H]2CCCCN2C1=O` [Example 183, c-[D-Tryptophanyl-L-isoleucinyl-D-pipecolyl-L-piperazin-2-yl(4-dibenzylphosphoramidyl)-D-(N^α -Me)phenylalanyl-L-prolyl]] (cyclo(I[dPip][X9][dNMeF]P[dW])): on uterine OT receptors (1 h, read-out: [^3 H]OT: percent inhibition of radioligand at the given concentration), the inhibition at 0.1 µM is 58%. In addition, the IC50 on AVP-V1 sites (Receptor Binding Results IC50 (nM) [^3 H]-AVP-V1, rat liver membranes, 1 nM [^3 H]AVP) is greater than 10000 nM. In addition, the inhibition at 10 µM on AVP-V2 sites (0.5 h, read-out: [^3 H]-AVP-V2: percent inhibition of radioligand at the given concentration) stood at 71%.
For `CC[C@H](C)[C@@H]1NC(=O)[C@@H](Cc2c[nH]c3ccccc23)NC(=O)[C@@H]2CCCN2C(=O)[C@@H](Cc2cnc[nH]2)NC(=O)[C@@H]2CCCCN2C(=O)[C@H]2CCC=NN2C1=O` [Example 184, c-[D-Tryptophanyl-L-isoleucinyl-D-Δ-piperazyl-L-pipecolyl-D-histidyl-L-prolyl]] (cyclo(I[dPiz(1,6-dehydro)][Pip][dH]P[dW])), the results for the half-maximal inhibitory concentration (IC50) at uterine OT receptors (Receptor Binding Results IC50 (nM) [^3 H]OT), on AVP-V1 sites (read-out: Receptor Binding Results IC50 (nM) [^3 H]-AVP-V1) and at AVP-V2 sites were 6 nM, 3980 nM and 1050 nM, respectively.
Turning to “C-[D,L-3-(3-(5-Methoxy)indolyl)alanyl-L-isoleucyl-D-pipecolyl-L-pipecolyl-D-histidyl-L-prolyl] [Example 156]”, the half-maximal inhibitory concentration (IC50) on uterine OT receptors (setting [1]) is 1100 nM; at AVP-V1 sites (setting [2]), greater than 30000 nM; at AVP-V2 sites, greater than 30000 nM.
For “c-[D,L-3-(3-(5-Methyl)indolyl)alanyl-L-isoleucyl-D-pipecolyl-L-pipecolyl-D- histidyl-L-prolyl] [Example 154]”, the results for the IC50 at uterine OT receptors (setting [1]), on AVP-V1 sites (setting [2]) and at AVP-V2 sites were 680 nM, 13000 nM and 7300 nM, respectively.
On to “c-[D-2-Trytophanyl-L-isoleucinyl-D-pipecolyl-L-piperazin-2-yl-(4-Cbz)-D-histidinyl(BOM)-L-prolyl] [Example 175]”, for which, on uterine OT receptors (@ 1,000 (nM)), the “[^3 H]OT: percent inhibition of radioligand at the given concentration” value was found to be 79%. For the same molecule, the “[^3 H]-AVP-V1: percent inhibition of radioligand at the given concentration” value at AVP-V1 sites (@ 10,000 (nM)) came out at 54%. Besides, the “[^3 H]-AVP-V2: percent inhibition of radioligand at the given concentration” value on AVP-V2 sites (@ 10,000 (nM)) is 81%.
